From patent US20210393547A1, “USE OF EMODIN IN TREATING RETINAL ISCHEMIA OR A DISEASE, CONDITION, OR DISORDER ASSOCIATED WITH RETINAL ISCHEMIA” (priority 2020, published 2021)

How the values were obtained:
[1] = system: retinal ganglion cells (RGC) in ischemic retina of Wistar rats; test: Retrograde fluorogold labeling of RGCs after retinal ischemia/reperfusion; assay type: in vivo, rat; settings: n=4, mean±SE
Procedure: Emodin was purchased from Sigma-Aldrich (E7881; 90%; storage at 2-8° C.; from Frangula bark; St. Louis, Mo., United States). Drug administration for different procedures, namely ERG, fluorogold RGC labelling, cresyl violet retinal staining and Western blot assays, were described in Tables 3 to 6. Vehicle or emodin (5 μL) was administered via an intravitreous injection route so that these agents were then able to be directly diffused to the target. Emodin was dissolved in vehicle (DMSO:distilled water=1:3). The defined final cellular concentrations of administered drug were 0.25 or 0.5 μM, which were achieved after 40 times dilution from the stock concentrations, namely 10 or 20 μM, based on an arbitrary definition of the vitreous volume as 200 μL. To test a wider range of dose-response, 4 μM of emodin was thus added in the animal experiments. The Vehicle+IR and Emo+IR groups (pre-ischemic administration of emodin 4, 10 or 20 μM) were subjected to following the experimental procedures; these were initial pre-ischemic intravitreous injection (vehicle or emodin), retinal ischemia induction 1 day later, and sacrifice of the animal on the following day to allow the various post-mortem procedures except ERG. […] Finally, the samples were then analyzed by fluorescent microscopy. The RGC density was defined as the total RGC amount divided by the whole retinal area and its mean was then calculated.

VEGF = test: Western blot of ischemic retina, VEGF to β-actin ratio; assay type: in vivo, rat; settings: n=6, mean±S.E
Procedure: Emodin was purchased from Sigma-Aldrich (E7881; 90%; storage at 2-8° C.; from Frangula bark; St. Louis, Mo., United States). Drug administration for different procedures, namely ERG, fluorogold RGC labelling, cresyl violet retinal staining and Western blot assays, were described in Tables 3 to 6. Vehicle or emodin (5 μL) was administered via an intravitreous injection route so that these agents were then able to be directly diffused to the target. Emodin was dissolved in vehicle (DMSO:distilled water=1:3). The defined final cellular concentrations of administered drug were 0.25 or 0.5 μM, which were achieved after 40 times dilution from the stock concentrations, namely 10 or 20 μM, based on an arbitrary definition of the vitreous volume as 200 μL. To test a wider range of dose-response, 4 μM of emodin was thus added in the animal experiments. […] Denatured proteins were then obtained using lysis buffer (mammalian protein extraction reagent; […]), the samples were then sonicated and quantified to give equivalent amounts of 30 μg/30 μl/well. […] Finally, the PVDF membranes were then developed using an enhanced chemiluminescent analysis system ([…]) and scanned using an imager (Amersham Imager; LifeSciences); the amount of each protein was quantified according to scanning densitometry.

## Cc1cc(O)c2c(c1)C(=O)c1cc(O)cc(O)c1C2=O [emodin, 6-methyl-1,3,8-trihydroxyanthraquinone]
[1]; Emo10+IR: pre-ischemic intravitreous 10 μM emodin, P<0.01, Sham 5323.53, Vehicle+IR 2069.12
  RGC density (retrograde fluorogold labeled): 3345.59±206.80 /0.17 mm^2
[1]; Emo20+IR: pre-ischemic intravitreous 20 μM emodin, P<0.001
  RGC density (retrograde fluorogold labeled): 4623.53±179.48 /0.17 mm^2
VEGF; Emo10+IR: pre-ischemic intravitreous 10 μM emodin, Sham normalized to 1, Vehicle+IR 7.67
  ratio of VEGF to β-actin protein level: 3.99±2.86
VEGF; Emo20+IR: pre-ischemic intravitreous 20 μM emodin, P=0.03 vs Vehicle+IR, Sham normalized to 1
  ratio of VEGF to β-actin protein level: 1.23±0.44
